The values that follow come from US20210353693A1, “Live Biotherapeutics to Treat and Prevent Lung Conditions” (priority 2018, published 2021).

≈ marks a conversion by molar mass, not a printed value. Where only a bound is given, the exact number is not on record here.

The test system of the first assay is LH1. The experiment in a line: ETEST antibiotic sensitivity of LH1. The conditions noted are these: 24 h, read-out: Susceptible to. The class given is cell-based.
On to `CC[C@H]1OC(=O)[C@H](C)[C@@H](O[C@H]2C[C@@](C)(OC)[C@@H](O)[C@H](C)O2)[C@H](C)[C@@H](O[C@@H]2O[C@H](C)C[C@H](N(C)C)[C@H]2O)[C@](C)(OC)C[C@@H](C)C(=O)[C@H](C)[C@@H](O)[C@]1(C)O` [Clarithromycin], for which the MIC stood at 0.16 µg/mL (≈ 0.214 µM).

Staying with this assay, now noted: ETEST, LH1, 24-hours anaerobic incubation.
On to Trimethoprim/Sulfamethoxazole, for which the “Resistant to” value turned out to be 32 µg/mL.

Regarding `NC[C@H]1O[C@H](O[C@H]2[C@H](O)[C@@H](O[C@H]3O[C@H](CO)[C@@H](O)[C@H](N)[C@H]3O)[C@H](N)C[C@@H]2N)[C@H](N)C[C@@H]1O` [Tobramycin], the “Resistant to” value is greater than 512 µg/mL. For the compound `CCN1CCN(C(=O)N[C@@H](C(=O)N[C@@H]2C(=O)N3[C@@H]2SC(C)(C)[C@@H]3C(=O)O)c2ccccc2)C(=O)C1=O` [Piperacillan], the “Susceptible to” value was 0.19 µg/mL. On to Amoxicillin/Clavulanic Acid, for which the “Susceptible to” value came out at 0.125 µg/mL. As for `C[C@H]1COc2c(N3CCN(C)CC3)c(F)cc3c(=O)c(C(=O)O)cn1c23` [Levofloxacin], the “Resistant to” value stood at 12 µg/mL. As for `NCC[C@H](O)C(=O)N[C@@H]1C[C@H](N)[C@@H](O[C@H]2O[C@H](CN)[C@@H](O)[C@H](O)[C@H]2O)[C@H](O)[C@H]1O[C@H]1O[C@H](CO)[C@@H](O)[C@H](N)[C@H]1O` [Amikacin], the “Resistant to” value is 48 µg/mL. Still for that read-out and setting: the figure for `O=C(O)c1cn(C2CC2)c2cc(N3CCNCC3)c(F)cc2c1=O` [Ciprofloxacin), Ciprofloxacin] is 32 µg/mL.

The assay is the same for the next values; noted with them: ETEST, LH1, 24-hours anaerobic incubation; read-out: Susceptible to.
As for `CN[C@H](CC(C)C)C(=O)N[C@H]1C(=O)N[C@@H](CC(N)=O)C(=O)N[C@H]2C(=O)N[C@H]3C(=O)N[C@H](C(=O)N[C@H](C(=O)O)c4cc(O)cc(O)c4-c4cc3ccc4O)[C@H](O)c3ccc(c(Cl)c3)Oc3cc2cc(c3O[C@@H]2O[C@H](CO)[C@@H](O)[C@H](O)[C@H]2O[C@H]2C[C@](C)(N)[C@H](O)[C@H](C)O2)Oc2ccc(cc2Cl)[C@H]1O` [Vancomycin], the MIC stood at 1.5 µg/mL (≈ 1.04 µM). `C[C@H]1[C@H](NC(=O)/C(=N\OC(C)(C)C(=O)O)c2csc(N)n2)C(=O)N1S(=O)(=O)O` [Aztreonam]: the MIC was 2 µg/mL (≈ 4.59 µM). As for `CO[C@H]1/C=C/O[C@@]2(C)Oc3c(C)c(O)c4c(O)c(c(/C=N/N5CCN(C)CC5)c(O)c4c3C2=O)NC(=O)/C(C)=C\C=C\[C@H](C)[C@H](O)[C@@H](C)[C@@H](O)[C@@H](C)[C@H](OC(C)=O)[C@@H]1C` [Rifampicin], the MIC is 0.125 µg/mL (≈ 0.152 µM). Turning to `CN(C)[C@@H]1C(O)=C(C(N)=O)C(=O)[C@@]2(O)C(O)=C3C(=O)c4c(O)cccc4[C@@](C)(O)[C@H]3C[C@@H]12` [Tetracycline], the MIC worked out at 0.5 µg/mL (≈ 1.13 µM).

Turning to `CC(=O)NC[C@H]1CN(c2ccc(N3CCOCC3)c(F)c2)C(=O)O1` [Linezolid], the MIC amounted to 0.5 µg/mL (≈ 1.48 µM). Take `CC[C@H]1OC(=O)[C@H](C)[C@@H](O[C@H]2C[C@@](C)(OC)[C@@H](O)[C@H](C)O2)[C@H](C)[C@@H](O[C@@H]2O[C@H](C)C[C@H](N(C)C)[C@H]2O)[C@](C)(O)C[C@@H](C)C(=O)[C@H](C)[C@@H](O)[C@]1(C)O` [Erythromycin]: the MIC amounted to 0.023 µg/mL (≈ 0.0313 µM). The same measure, in the same setting: the figure for `C[C@@H](O)[C@H]1C(=O)N2C(C(=O)O)=C(SCCN=CN)C[C@H]12` [Imipenem] is 0.094 µg/mL (≈ 0.314 µM).
